Test results published in paper PMC8010149, “A Therapeutic Strategy to Combat HIV-1 Latently Infected Cells With a Combination of Latency-Reversing Agents Containing DAG-Lactone PKC Activators” (Frontiers in Microbiology, 2021).

Tests used:
[1] = system: HIV-1 latently infected U1 cells; assay: Intracellular HIV-1 p24 by flow cytometry in U1 cells; format: cell-based
Protocol: (§1) The reactivation of HIV-1 from latently infected cells was determined by intracellular p24 protein expression and quantification of p24 antigen in the supernatant (ACH-2 and U1 cells), or by changes in intracellular green fluorescent protein (GFP) expression (J-Lat 10.6 cells). J-Lat ([Jordan et al., 2003]), ACH-2, or U1 cells (5 × 10^5 cells/ml) were seeded in 96-well plates and incubated with different drug concentrations for 24 h to collect the cells. The supernatant was collected after 48 h. The increase in supernatant p24 antigen levels was measured using a Lumipulse G1200 (FUJIREBIO, Tokyo, Japan). J-Lat cells (5 × 10^5 cells/ml) were placed in 48-well plates and incubated with different drug concentrations for 24 h. Intracellular p24 protein expression and GFP-positive cells were analyzed by flow cytometry.
(§2) The amount of intracellular HIV-1 p24 and the active form of caspase-3 were determined by flow cytometry, as previously described ([Matsuda et al., 2015], [2019]). In brief, ACH-2 and U1 cells (2.5 × 10^5 cells/ml) were fixed with 1% paraformaldehyde/PBS for 20 min and permeabilized with Flow Cytometry Perm Buffer (TONBO Biosciences, San Diego, CA, United States). After 5 min of incubation at room temperature, the cells were stained with FITC anti-HIV-1 p24 (24-4) monoclonal antibody (mAb; Santa Cruz Biotechnology, Dallas, TX, United States) or Alexa Fluor 647-conjugated anti-active caspase-3 (C92-605) mAb (BD Pharmingen, San Diego, CA, United States) for 30 min on ice. For T cell activation and exhaustion marker staining, PBMCs from healthy donors separated by the above density gradient centrifugation method were incubated with fixable viability stain Ghost Dye 780 (TONBO Biosciences) for 30 min on ice. The cells were then stained with Brilliant Violet 510 anti-human CD3 (UCHT1) mAb (BioLegend), FITC anti-human CD4 (RPA-T4) mAb (TONBO Biosciences), PE-Cy7 anti-human CD8a (RPA-T8) mAb (TONBO Biosciences), PerCP-Cy5.5 anti-human CD38 (HB-7) mAb (BioLegend), PE anti-human CD69 (FN50) mAb (BioLegend), or Alexa Fluor 647 anti-human CD279/PD-1 (EH12.1) mAb (BD Biosciences, San Jose, CA, United States) for 30 min on ice. Next, the cells were analyzed using BD FACSVerse (BD Biosciences). In the analysis, unstained cells were used as a negative control to set the gating for each experiment. The collected data were analyzed using FlowJo software (Tree Star, San Carlos, CA, United States).

[2] = Cytotoxicity of LRAs in A3.01 cells; format: cell-based; conditions: human, day 7
Protocol: (§3) To determine the cytotoxicity of LRAs, A3.01, and U937 cells (5 × 10^5 cells/ml), which are the parental cells for ACH-2 and U1 cells, respectively, were cultured in the presence or absence of LRAs. After 7 days, cell viability was examined using the Cell Counting Kit-8 assay (Dojindo, Kumamoto, Japan) according to the manufacturer’s instructions. The numbers of living cells after drug treatment were measured and compared to those in untreated cells and are presented as a percentage relative to the control.

[3] = system: HIV-1 latently infected U1 cells; assay: HIV-1 latency reversal, p24 antigen in supernatant, U1 cells; format: cell-based; conditions: Human immunodeficiency virus 1, 48 h
Protocol: as §1

[4] = system: HIV-1 latently infected ACH-2 cells; assay: HIV-1 latency reversal, p24 antigen in supernatant, ACH-2 cells; format: cell-based; conditions: Human immunodeficiency virus 1, ACH-2, 48 h
Protocol: as §1

[5] = Cytotoxicity of LRAs in U937 cells; format: cell-based; conditions: human, day 7
Protocol: as §3

[6] = system: HIV-1 latently infected ACH-2 cells; assay: Intracellular HIV-1 p24 by flow cytometry in ACH-2 cells; format: cell-based
Protocol: as §1, §2

J-Lat 10.6 cells = format: cell-based, HIV-1; conditions: J-Lat 10.6 cells, 24 h
Protocol: The reactivation of HIV-1 from latently infected cells was determined by intracellular p24 protein expression and quantification of p24 antigen in the supernatant (ACH-2 and U1 cells), or by changes in intracellular green fluorescent protein (GFP) expression (J-Lat 10.6 cells). […] The supernatant was collected after 48 h. The increase in supernatant p24 antigen levels was measured using a Lumipulse G1200 (FUJIREBIO, Tokyo, Japan). […] Intracellular p24 protein expression and GFP-positive cells were analyzed by flow cytometry.
Differences between groups were analyzed for statistical significance using unpaired t-tests. Statistical significance was set at p < 0.05. Statistical analyses were performed using GraphPad Prism version 8 (GraphPad Software, La Jolla, CA, United States). CompuSyn software, based on the quantitative analysis of dose-effect relationships between multiple drugs by Chou and Talalay, was utilized to determine the synergism or antagonism of drug combinations ([Chou and Talalay, 1984]). To confirm synergy, this software calculates combination index (CI) values, which further assist in determining the nature of the combination compared to single drug effects. A CI value <1 indicates synergistic effects.

[7] = system: HIV-1 in CD4+ T cells from HIV-1-infected individuals; assay: Ex vivo reactivation, intracellular HIV-1 mRNA in primary CD4+ T cells from HIV-1-infected individuals; format: cell-based; conditions: 1 μM JQ1, 24 h, seven individuals
Protocol: Primary cells were isolated from seven HIV-1^+ individuals, and ex vivo reactivation experiments were conducted as previously described ([Matsuda et al., 2019]). In brief, peripheral blood samples were collected from HIV-1-infected participants receiving cART for at least 5 years (Table 1). All subjects maintained a low viral load (<20 copies/ml, except for occasional “blips”) during therapy. CD4^+ T cell counts in peripheral blood samples ranged from 477 to 992 cells/mm^3 (average: 631 cells/mm^3), and plasma viral loads were <20 copies/ml (except for one participant whose viral load was 22 copies/ml) as measured by quantitative PCR (qPCR; COBAS AmpliPrep/COBAS TaqMan HIV-1 Test version 2.0; Roche Diagnostics, Basel, Switzerland) at the time of study enrollment. The Ethics Committee at the National Center for Global Health and Medicine approved this study (NCGM-G-002259-00), and each patient provided written informed consent. […] The number of HIV-1 RNA copies was calculated using a standard curve obtained from serially diluted HIV-1pNL4-3 plasmid, and normalized values [HIV-1 RNA copies/input RNA (ng)] for each drug were compared to those without drug treatment. The relative increase in HIV-1 RNA levels in the presence of each drug or combination was then determined.

[8] = system: CD8+PD1+CD38+ primary T cells; assay: Immune exhaustion markers, CD8+PD1+CD38+ primary T cells; format: cell-based, human; conditions: PBMCs from healthy donors, 24 h
Protocol: as §2

BALB/c mice = assay: In vivo acute toxicity (24 h) in BALB/c mice
Text: BALB/c mice were purchased from Charles River Laboratories Japan, Inc. (Yokohama, Japan). Female mice at 5 weeks of age were used for the experiments. The mice were housed and monitored in our animal research facility according to the institutional guidelines. All experimental procedures and protocols were approved by the Institutional Animal Care and Use Committee of Kumamoto University.

U1 cells = assay: Active caspase-3 by flow cytometry in U1 cells; format: cell-based; conditions: 10 µM, 24 h
Protocol: as §2, with “The cells were then stained with Brilliant Violet 510 anti-human CD3 (UCHT1) mAb (BioLegend), FITC anti-human CD4 (RPA-T4) mAb (TONBO Biosciences), PE-Cy7 anti-human CD8a (RPA-T8) mAb (TONBO Biosciences), PerCP-Cy5.5 anti-human CD38 (HB-7) mAb (BioLegend), PE anti-human CD69 (FN50) mAb (BioLegend), or Alexa Fluor 647 anti-human CD279/PD-1 (EH12.1) mAb (BD Biosciences, San Jose, CA, United States) for 30 min on ice.” left out, “In the analysis, unstained cells were used as a negative control to set the gating for each experiment.” left out

U937 cells = assay: Active caspase-3 by flow cytometry in U937 cells; format: cell-based; conditions: 10 μM, 24 h
[9] = PMA control, concentration not given

Structure (SMILES) | intracellular p24-positive live cells (flow cytometry quadrant) ([1]; 0.1 µM, 24 h) | intracellular p24-positive live cells (flow cytometry quadrant) ([1]; 1 µM, 24 h) | intracellular p24-positive live cells (flow cytometry quadrant) ([1]; 10 µM, 24 h) | CC50 at 7 days [2] | EC50 [3] | EC50 [4] | CC50 at 7 days [5] | intracellular p24-positive live cells (flow cytometry quadrant) ([6]; 0.1 µM, 24 h) | intracellular p24-positive live cells (flow cytometry quadrant) ([6]; 1 µM, 24 h) | intracellular p24-positive live cells (flow cytometry quadrant) ([6]; 10 µM, 24 h) | increase in CD8+ PD1+ CD38+ T cells [8] | also measured
CCCCCCCCCC(=O)OCC1(CO)CC(=C(C)C)C(=O)O1 (centres unmarked) [HTA14-472] | 0.28 | 0.262 | 2.98 | > 100 µM | > 10 µM | > 10 µM | > 100 µM | 0.714 | 0.526 | 17.4 | – | –
Cc1sc2c(c1C)C(c1ccc(Cl)cc1)=N[C@@H](CC(=O)OC(C)(C)C)c1nnc(C)n1-2 [JQ1, reference compound] | – | – | – | – | – | – | – | – | – | – | – | number of GFP+ cells (J-Lat 10.6 cells; 100–400 nM): 12.6%; HIV-1 mRNA compared to no drug control [7]: 2.25 fold
C/C=C(/C)C(=O)O[C@H]1C(C)=C[C@]23C(=O)[C@@H](C=C(CO)[C@@H](O)[C@]12O)[C@H]1[C@@H](C[C@H]3C)C1(C)C [PEP005] | – | – | – | – | – | – | – | – | – | – | significant increase | concentration at which acute toxicity started (BALB/c mice; intraperitoneal): 300 µg/kg; survival (BALB/c mice; intraperitoneal, 1,000 μg/kg): all tested mice died
CCCCCCCCCCCCCC(=O)O[C@@H]1[C@@H](C)[C@@]2(O)[C@@H](C=C(CO)C[C@]3(O)C(=O)C(C)=C[C@@H]23)[C@@H]2C(C)(C)[C@]12OC(C)=O [PMA, Phorbol 12-myristate 13-acetate, reference compound] | – | – | – | – | – | – | – | – | – | – | – | intracellular p24-positive live cells (flow cytometry quadrant) [1, 9]: 42.2; intracellular p24-positive live cells (flow cytometry quadrant) [6, 9]: 77.8
CC(=O)O[C@@]12C[C@@H](C)[C@@]3(O)[C@@H](C=C(CO)C[C@]4(O)C(=O)C(C)=C[C@@H]34)[C@@H]1C2(C)C [Prostratin, reference compound] | 0.333 | 33.5 | 40.7 | > 100 µM | 0.32 µM | 0.33 µM | > 100 µM | 4.99 | 68.7 | 76.7 | significant increase | caspase-3 activation (U1 cells): 19.1%; LRA activity in the presence of 10% mouse serum versus 10% FBS (J-Lat 10.6 cells; GFP-positive cells): did not change; caspase-3 activation (U937 cells): 18.8%
CCCCCCCCCC(=O)OCC1(CO)C/C(=C\CC(C(C)C)C(C)C)C(=O)O1 (centres unmarked) [YOK058E] | 0.208 | 0.197 | 13.3 | > 100 µM | 8.24 µM | > 10 µM | > 100 µM | 0.629 | 3.24 | 67.2 | – | –
